From patent US8802597B2, “Herbicidal pyrimidines” (E I du Pont de Nemours and Company, priority 2003, dated 2014)
Where two headings read alike, the source gives them in different places.

Legend:
Assay in all cases: Test C pre/postemergence
Type in all cases: in vivo
[1] = test system: kochia (Kochia scoparia); conditions: Bassia scoparia, pre-emergence, Preemergence, read-out: Plant response rating, Kochia
In short: (§1)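 We sprayed seeded pots preemergence and 2–18 cm seedlings postemergence with test chemicals in a non-phytotoxic solvent mixture including surfactant. Greenhouse plants were visually compared with untreated controls at 12 to 14 days and scored 0 (no effect) to 100 (complete control).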

[2] = test system: johnsongrass (Sorghum halepense); conditions: Sorghum halepense; for pest or weed control at 31 g/ha: 31 g ai/ha; for pest or weed control at 62 g/ha: 62 g ai/ha; for pest or weed control at 125 g/ha: 125 g ai/ha; for pest or weed control at 250 g/ha: 250 g ai/ha
In short: as §1

[3] = test system: Surinam grass (Brachiaria decumbens); conditions: Urochloa decumbens; for pest or weed control at 125 g/ha: 125 g ai/ha; for pest or weed control at 62 g/ha: 62 g ai/ha
In short: as §1

[4] = test system: crabgrass (Digitaria sanguinalis); conditions: Digitaria sanguinalis; for pest or weed control at 31 g/ha: 31 g ai/ha; for pest or weed control at 62 g/ha: 62 g ai/ha; for pest or weed control at 125 g/ha: 125 g ai/ha; for pest or weed control at 250 g/ha: 250 g ai/ha
In short: as §1

[5] = test system: common (oilseed) sunflower (Helianthus annuus); conditions: Helianthus annuus, pre-emergence, Preemergence, read-out: Plant response rating, Sunflower
In short: as §1

[6] = test system: cocklebur (Xanthium strumarium); conditions: Xanthium strumarium; for pest or weed control at 31 g/ha: 31 g ai/ha; for pest or weed control at 62 g/ha: 62 g ai/ha; for pest or weed control at 125 g/ha: 125 g ai/ha
In short: as §1

[7] = test system: velvetleaf (Abutilon theophrasti); conditions: Abutilon theophrasti; for pest or weed control at 31 g/ha: 31 g ai/ha; for pest or weed control at 62 g/ha: 62 g ai/ha; for pest or weed control at 125 g/ha: 125 g ai/ha; for pest or weed control at 250 g/ha: 250 g ai/ha
In short: as §1

[8] = 62 g ai/ha, scale 0 to 100, 0 no effect, 100 complete control
[9] = post-emergence, Postemergence, scale 0 to 100 (0 no effect, 100 complete control), read-out: Johnsongrass plant response rating
[10] = pre-emergence, Preemergence, scale 0 to 100, 0 no effect, 100 complete control, read-out: Plant response rating, Johnsongrass
[11] = pre-emergence, Preemergence, scale 0 to 100, read-out: Plant response rating, Johnsongrass
[12] = post-emergence, Postemergence, scale 0 to 100 (0 no effect, 100 complete control), read-out: Surinam Grass plant response rating
[13] = post-emergence, Postemergence, scale 0 to 100 (0 no effect, 100 complete control), read-out: Crabgrass plant response rating
[14] = pre-emergence, Preemergence, scale 0 to 100, 0 no effect, 100 complete control, read-out: Plant response rating, Crabgrass
[15] = pre-emergence, Preemergence, scale 0 to 100, read-out: Plant response rating, Crabgrass
[16] = post-emergence, Postemergence, scale 0 to 100 (0 no effect, 100 complete control), read-out: Cocklebur plant response rating
[17] = pre-emergence, Preemergence, scale 0 to 100, 0 no effect, 100 complete control, read-out: Plant response rating, Cocklebur
[18] = post-emergence, Postemergence, scale 0 to 100 (0 no effect, 100 complete control), read-out: Velvetleaf plant response rating
[19] = pre-emergence, Preemergence, scale 0 to 100, 0 no effect, 100 complete control, read-out: Plant response rating, Velvetleaf
[20] = pre-emergence, Preemergence, scale 0 to 100, read-out: Plant response rating, Velvetleaf

CCOC(=O)c1nc(-c2ccc(Cl)cc2)nc(N)c1Cl [Compound 64, ethyl 6-amino-5-chloro-2-(4-chlorophenyl)-4-pyrimidinecarboxylate]
pest or weed control at 62 g/ha [1, 8]: 20% | pest or weed control at 125 g/ha ([1]; 125 g ai/ha, scale 0 to 100): 25% | pest or weed control at 250 g/ha ([1]; 250 g ai/ha, scale 0 to 100): 70% | pest or weed control at 31 g/ha ([2]; post-emergence, Postemergence, read-out: Plant response rating (scale of 0 to 100), Johnsongrass): 60% | pest or weed control at 62 g/ha [2, 9]: 80% | pest or weed control at 125 g/ha [2, 9]: 85% | pest or weed control at 250 g/ha ([2]; post-emergence, Postemergence, scale 0 to 100, read-out: Plant response rating, Johnsongrass): 85% | pest or weed control at 31 g/ha [2, 10]: 5% | pest or weed control at 62 g/ha [2, 10]: 5% | pest or weed control at 125 g/ha [2, 11]: 50% | pest or weed control at 250 g/ha [2, 11]: 60% | pest or weed control at 125 g/ha [3, 12]: 60% | pest or weed control at 31 g/ha ([3]; post-emergence, Postemergence, 31 g ai/ha, read-out: Plant response rating (scale of 0 to 100), Surinam Grass): 20% | pest or weed control at 62 g/ha [3, 12]: 60% | pest or weed control at 62 g/ha ([3]; pre-emergence, Preemergence, scale 0 to 100, 0 no effect, 100 complete control, read-out: Plant response rating, Surinam Grass): 0% | pest or weed control at 125 g/ha ([3]; pre-emergence, Preemergence, scale 0 to 100, read-out: Plant response rating, Surinam Grass): 50% | pest or weed control at 250 g/ha ([3]; pre-emergence, Preemergence, 250 g ai/ha, scale 0 to 100, read-out: Plant response rating, Surinam Grass): 90% | pest or weed control at 31 g/ha ([4]; post-emergence, Postemergence, read-out: Plant response rating (scale of 0 to 100), Crabgrass): 70% | pest or weed control at 62 g/ha [4, 13]: 80% | pest or weed control at 125 g/ha [4, 13]: 85% | pest or weed control at 250 g/ha ([4]; post-emergence, Postemergence, scale 0 to 100, read-out: Plant response rating, Crabgrass): 90% | pest or weed control at 31 g/ha [4, 14]: 0% | pest or weed control at 62 g/ha [4, 14]: 0% | pest or weed control at 125 g/ha [4, 15]: 70% | pest or weed control at 250 g/ha [4, 15]: 90% | pest or weed control at 31 g/ha ([5]; 31 g ai/ha, scale 0 to 100, 0 no effect, 100 complete control): 0% | pest or weed control at 62 g/ha [5, 8]: 0% | pest or weed control at 125 g/ha ([5]; 125 g ai/ha, scale 0 to 100): 30% | pest or weed control at 250 g/ha ([5]; 250 g ai/ha, scale 0 to 100): 85% | pest or weed control at 31 g/ha ([6]; post-emergence, Postemergence, read-out: Plant response rating (scale of 0 to 100), Cocklebur): 90% | pest or weed control at 62 g/ha [6, 16]: 90% | pest or weed control at 125 g/ha [6, 16]: 100% | pest or weed control at 31 g/ha [6, 17]: 0% | pest or weed control at 62 g/ha [6, 17]: 0% | pest or weed control at 125 g/ha ([6]; pre-emergence, Preemergence, scale 0 to 100, read-out: Plant response rating, Cocklebur): 5% | pest or weed control at 250 g/ha ([6]; pre-emergence, Preemergence, 250 g ai/ha, scale 0 to 100, read-out: Plant response rating, Cocklebur): 30% | pest or weed control at 31 g/ha ([7]; post-emergence, Postemergence, read-out: Plant response rating (scale of 0 to 100), Velvetleaf): 80% | pest or weed control at 62 g/ha [7, 18]: 85% | pest or weed control at 125 g/ha [7, 18]: 90% | pest or weed control at 250 g/ha ([7]; post-emergence, Postemergence, scale 0 to 100, read-out: Plant response rating, Velvetleaf): 95% | pest or weed control at 31 g/ha [7, 19]: 0% | pest or weed control at 62 g/ha [7, 19]: 0% | pest or weed control at 125 g/ha [7, 20]: 0% | pest or weed control at 250 g/ha [7, 20]: 0%
